melting point: 186.8 °C
SMILES: O=C(O)c1ccc(CCc2ccc(NC(=O)c3c(NC(=O)c4cccc(S(=O)(=O)N(C5CC5)[C@H]5CC[C@@H](C(=O)O)CC5)c4)sc4c3CCCC4)cc2)cc1 [Example 5, 4-{2-[4-({[2-({3-[(cis-4-carboxycyclohexyl)(cyclopropyl)sulfamoyl]benzoyl}amino)-4,5,6,7-tetrahydro-1-benzothiophen-3-yl]carbonyl}amino)phenyl]ethyl}benzoic acid]

Reference: patent publication US8729068B2, “Tetrahydrobenzothiophene compound” (Astellas Pharma Inc., priority 2010, dated 2014)
